# Assay results: patent US20250169496A1, “USE OF 2-AMINO-3-HYDROXY-3-METHYLBUTYRIC ACID AND/OR 2-AMINO-3-(4-HYDROXYPHENYL) BUTYRIC ACID” (NANJING TIANNONG BIOTECHNOLOGY CO., LTD., priority 2021, published 2025)
# What was measured:
# [1] = tested on: ryegrass under high-temperature stress; experiment: Ryegrass under high-temperature stress; assay type: in vivo; conditions: for PIABS (photosynthetic performance index): ryegrass after 45° C. for 12 h; for Heat damage index: 45° C. 12 h, recovered 7 d
# Protocol: Set 4 groups for each concentration and meanwhile set a room-temperature blank control. Weigh 0.8 g of ryegrass seeds per bowl, sow them in bowls with a diameter of 8.5 cm, and grow in a greenhouse at 25° C., RH 60%-70% and luminous intensity of 200 μmol m^−2s^−1(12 h illumination/12 h darkness). Start treatment after ryegrass has grown for 7 dby the method of spraying a 2-amino-3-(4-hydroxyphenyl) butyric acid solution on the leaf surface twice in 24 h.24 h after the second treatment, transfer them to an illumination incubator of 45° C. for high-temperature stress treatment, and after 12 h, conduct dark treatment at room temperature for 30 min, then determine the chlorophyll fluorescence of […] leaves by plant efficiency Handy-PEA, then transfer the plants to a 25° C. greenhouse and recover them for 7 d, observe and calculate the damage condition of the plants and calculate the heat damage levels. The heat damage grading standard is shown in Table 9 and the heat damage calculation formula is as follows.
# [2] = tested on: Arabidopsis under high-temperature stress; experiment: Arabidopsis under high-temperature stress; assay type: in vivo; conditions: for PIABS (photosynthetic performance index): Arabidopsis after 45° C. for 12 h; for Heat damage index: 45° C. 12 h, recovered 7 d
# Protocol: Take 2-amino-3-hydroxy-3-methylbutyric acid, dissolve it with distilled water, then dilute the solution with distilled water by gradient into 10 nM, 100 nM, 1,000 nM and 10,000 nM solutions, set a blank control, and meanwhile add 0.02% Tween 20 as a surfactant. Set 4 groups for each concentration and meanwhile set a room-temperature blank control. Sow about 50 Arabidopsis seeds in each bowl with a diameter of 8.5 cm, and grow in a greenhouse at 25° C., RH 60%-70% and luminous intensity of 200 μmol m^−2s^−1(16 h illumination/8 h darkness). Start treatment in 21 d of the Arabidopsis seedling stage by the method of spraying a 2-amino-3-hydroxy-3-methylbutyric acid solution on the leaf surface twice in 24 h. 24 h after the second treatment, transfer them to an illumination incubator of 45° C. for high-temperature stress treatment, and after 12 h, conduct dark treatment at room temperature for 30 min, then determine the chlorophyll fluorescence of Arabidopsis leaves by plant efficiency Handy-PEA, then transfer the plants to a 25° C. greenhouse and recover them for 7 d, observe and calculate the damage condition of the plants and calculate the heat damage levels. The heat damage grading standard is shown in Table 9 and the heat damage index calculation formula is as follows.
# rat brain glial cells = conditions: concentration of 10μgmL^−1; cited from earlier work
# [3] = 10,000 nM (so in the source), ryegrass, high-temperature stress, vs 0 nM
# [4] = 10,000 nM, Arabidopsis, high-temperature stress, vs 0 nM
smiles,measurement,setting,value
CC(c1ccc(O)cc1)C(N)C(=O)O (stereo not drawn) [2-amino-3-(4-hydroxyphenyl) butyric acid],PIABS (photosynthetic performance index),[1]; 1 nM,0.78 ± 0.23bc
same,Heat damage index,"[1]; 1 nM, ryegrass",81%
same,PIABS (photosynthetic performance index),[1]; 10 nM,0.95 ± 0.41bc
same,Heat damage index,"[1]; 10 nM, ryegrass",66.67%
same,PIABS (photosynthetic performance index),[1]; 100 nM,1.50 ± 0.54b
same,Heat damage index,"[1]; 100 nM, ryegrass",55%
same,PIABS (photosynthetic performance index),"[1]; 1,000 nM",2.61 ± 1.05ab
same,Heat damage index,"[1]; 1,000 nM, ryegrass",35%
same,Decrease of heat damage index,[1]; [3],55%
same,Increase of PIABS,[1]; [3],366%
CC(C)(O)C(N)C(=O)O (stereo not drawn) [2-amino-3-hydroxy-3-methylbutyric acid],PIABS (photosynthetic performance index),[2]; 10 nM,10.60 ± 0.32 c
same,Heat damage index,"[2]; 10 nM, Arabidopsis",60%
same,PIABS (photosynthetic performance index),[2]; 100 nM,11.27 ± 0.89 c
same,Heat damage index,"[2]; 100 nM, Arabidopsis",45%
same,PIABS (photosynthetic performance index),"[2]; 1,000 nM",13.61 ± 0.38 b
same,Heat damage index,"[2]; 1,000 nM, Arabidopsis",20%
same,PIABS (photosynthetic performance index),"[2]; 10,000 nM",15.60 ± 0.78 ab
same,Heat damage index,"[2]; 10,000 nM, Arabidopsis",15%
same,Decrease of heat damage index,[2]; [4],65%
same,Increase of PIABS,[2]; [4],106%
same,Toxicity to rat brain glial cells,rat brain glial cells,weakly toxic
